Test results taken from US4314999A, “N-Acyl derivatives of glucosamine having antitumor chemotherapeutic acitivity” (Proter S.p.A., priority 1980, dated 1982).

Test system: Leukemia L 1210
Assay: Survival (MST, ILS, T/C%) of mice inoculated i.p. with Leukemia L 1210, compound given orally
Format: in vivo
Set-up: Increase in Life Span (ILS): unit not given here
Settings: for Survivors: of 10 mice
Description: The chemotherapeutic activity of the compound ethyl-D-glucosamyl-L-aspartoyl(β-ethoxy)-D-glucosamyl)m-di(2-chloroethylamino)-L-phenylalanyl-p-fluoro-L-phenylalanine was evaluated by conducting trials on mice injected with cells of Leukemia 1210 according to the procedure established in Cancer Chemotherapy Reports 1972, Vol. 3, No. 2: Protocols for Screening Chemical Agents and Natural Products Against Animal Tumors and other Biological Systems (Third Edition, National Cancer Institute, Bethesda, Maryland. The experimental model employed for the evaluation is:
Determination of the MST (Mean Survival Time) of BDGI mice inoculated intraperitoneally with 10^5 cells of lymphoid Leukenia L 1210 deriving from regular implants in DBA2 mice. The MST was determined both on the controls and on the animals treated, and thereafter an evaluation was made of the ILS (Increased Life Span) according to Cancer Chemotherapy Reports 1972, Vol. 3, No. 2 (Protocols for Screening Chemical Agents and Natural Products Against Animal Tumors and other Biological Systems--Third Edition, National Cancer Institute, Bethesda, Maryland). In this case, the compounds were tested only after oral administration starting from the 3rd day after implant of the tumor and continuing on the 17th, 25th and 35th day. On the 52nd day, any surviving animals were sacrificed and the experiment discontinued and evaluated.
The formula for the calculation of mean survival time is: [formula] wherein Day A=Day on which deaths are no longer considered due to drug toxicity - For Leukemia L 1210 day A=day 6
Day B=This day cannot be considered here because all control animals died within the 11th day and survivors were not observed.
S=The total of survivors from 6th day onwards
S(A-1)=Number of survivors at the end of day 5 (A-1)=S5
The ILS and the ratio T/C% are calcuated as follows: […]

[1] = Table, oral 25, 15, 10, 5 mg/Kg on days 3, 17, 25, 35, L 1210 mice

Question: Which I.L.S. [1] does the source give for “Ethyl-D-glucosamyl-L-aspartoyl(β-ethoxy)-D-glucosamyl-m-di-(2-chloroethyl)amino-L-phenylalanyl-p-fluoro-phenylalanine” here?
Answer: The I.L.S. was 186.4.

Question: What about the M.S.T. [1] of the same substance?
Answer: The M.S.T. was 32.7.

Question: And the T/C % [1]?
Answer: The T/C % was 311.4%.

Question: And the Survivors (day 3 from inoculum, oral 25 mg/Kg given this day)?
Answer: Its Survivors is 10.

Question: What about the Survivors (day 4 from inoculum) of the same substance?
Answer: The Survivors was 10.

Question: What about the Survivors (day 5 from inoculum) of the same substance?
Answer: Its Survivors is 10.

Question: What about the Survivors (day 6 from inoculum) of the same substance?
Answer: The Survivors was 10.

Question: And the Survivors (day 7 from inoculum)?
Answer: Its Survivors is 10.

Question: And the Survivors (day 8 from inoculum)?
Answer: The Survivors was 10.

Question: And the Survivors (day 9 from inoculum)?
Answer: Its Survivors is 10.

Question: What about the Survivors (day 10 from inoculum) of the same substance?
Answer: Its Survivors is 10.

Question: And the Survivors (day 11 from inoculum)?
Answer: Its Survivors is 10.

Question: And the Survivors (day 12 from inoculum)?
Answer: Its Survivors is 10.

Question: And the Survivors (day 13 from inoculum)?
Answer: Its Survivors is 10.

Question: And the Survivors (day 14 from inoculum)?
Answer: Its Survivors is 10.

Question: And the Survivors (day 15 from inoculum)?
Answer: The Survivors was 10.

Question: And the Survivors (day 16 from inoculum)?
Answer: The Survivors was 10.

Question: What about the Survivors (day 17 from inoculum, oral 15 mg/Kg given this day) of the same substance?
Answer: The Survivors was 10.

Question: And the Survivors (day 18 from inoculum)?
Answer: Its Survivors is 10.

Question: And the Survivors (day 19 from inoculum)?
Answer: The Survivors was 8.

Question: And the Survivors (day 20 from inoculum)?
Answer: Its Survivors is 8.

Question: What about the Survivors (day 21 from inoculum) of the same substance?
Answer: The Survivors was 6.

Question: What about the Survivors (day 22 from inoculum) of the same substance?
Answer: Its Survivors is 6.

Question: And the Survivors (day 23 from inoculum)?
Answer: Its Survivors is 6.

Question: And the Survivors (day 24 from inoculum)?
Answer: Its Survivors is 6.

Question: What about the Survivors (day 25 from inoculum, oral 10 mg/Kg given this day) of the same substance?
Answer: Its Survivors is 6.

Question: And the Survivors (day 26 from inoculum)?
Answer: Its Survivors is 6.

Question: What about the Survivors (day 27 from inoculum) of the same substance?
Answer: The Survivors was 6.

Question: And the Survivors (day 28 from inoculum)?
Answer: Its Survivors is 6.

Question: And the Survivors (day 29 from inoculum)?
Answer: The Survivors was 6.

Question: What about the Survivors (day 30 from inoculum) of the same substance?
Answer: The Survivors was 5.

Question: And the Survivors (day 31 from inoculum)?
Answer: The Survivors was 5.

Question: And the Survivors (day 32 from inoculum)?
Answer: The Survivors was 5.

Question: And the Survivors (day 33 from inoculum)?
Answer: The Survivors was 5.

Question: And the Survivors (day 34 from inoculum)?
Answer: Its Survivors is 4.

Question: What about the Survivors (day 35 from inoculum, oral 5 mg/Kg given this day) of the same substance?
Answer: Its Survivors is 4.

Question: And the Survivors (day 36 from inoculum)?
Answer: Its Survivors is 4.

Question: What about the Survivors (day 37 from inoculum) of the same substance?
Answer: The Survivors was 4.

Question: What about the Survivors (day 38 from inoculum) of the same substance?
Answer: Its Survivors is 4.

Question: What about the Survivors (day 39 from inoculum) of the same substance?
Answer: The Survivors was 4.

Question: And the Survivors (day 40 from inoculum)?
Answer: Its Survivors is 3.

Question: What about the Survivors (day 41 from inoculum) of the same substance?
Answer: The Survivors was 3.

Question: What about the Survivors (day 42 from inoculum) of the same substance?
Answer: Its Survivors is 2.

Question: And the Survivors (day 43 from inoculum)?
Answer: Its Survivors is 2.

Question: And the Survivors (day 44 from inoculum)?
Answer: The Survivors was 2.

Question: What about the Survivors (day 45 from inoculum) of the same substance?
Answer: The Survivors was 2.

Question: What about the Survivors (day 46 from inoculum) of the same substance?
Answer: The Survivors was 2.

Question: What about the Survivors (day 47 from inoculum) of the same substance?
Answer: Its Survivors is 2.

Question: And the Survivors (day 48 from inoculum)?
Answer: Its Survivors is 2.

Question: What about the Survivors (day 49 from inoculum) of the same substance?
Answer: Its Survivors is 1.

Question: And the Survivors (day 50 from inoculum)?
Answer: Its Survivors is 1.

Question: And the Survivors (day 51 from inoculum)?
Answer: Its Survivors is 1.

Question: And the Survivors (day 52 from inoculum)?
Answer: Its Survivors is 0.

Question: And the “Mean Survival Time (MST)” value (ten mice, 10^5 L 1210 cells i.p., oral 25, 15, 10, 5 mg/kg on days 3, 17, 25, 35)?
Answer: Its value is 32.7 days.

Question: What about the “Increase in Life Span (ILS)” value (ten mice, 10^5 L 1210 cells i.p., oral 25, 15, 10, 5 mg/kg on days 3, 17, 25, 35, calculated as 311.4-125) of the same substance?
Answer: Its value is 186.4.

Question: And the “T/C% (MST of the treated group divided by the MST of the control group)” value (ten mice, 10^5 L 1210 cells i.p., oral 25, 15, 10, 5 mg/kg on days 3, 17, 25, 35, control MST 10.5)?
Answer: Its value is 311.4%.
